Data on seven molecules can be found in paper PMC1831776, “Structure and characterization of a novel chicken biotin-binding protein A (BBP-A)” (BMC Structural Biology, 2007).

Marks after values point to notes of the source that are not given here.

Data set [1] deals with T1, bBBP-A (Gallus gallus, UniProt E1BTQ4).
T1 sequence (E1BTQ4 22-146): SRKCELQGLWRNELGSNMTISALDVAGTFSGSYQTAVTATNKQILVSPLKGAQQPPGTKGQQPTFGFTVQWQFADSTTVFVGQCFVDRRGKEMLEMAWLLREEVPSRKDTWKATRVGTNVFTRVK
In words: Isothermal titration calorimetry, BBP-A. The data set is classed as binding, chicken. The conditions noted are these: for Enthalpy (ITC), BBP-A: 25°C. On the procedure:
(§1) The energetics of biotin binding was determined with a VP-ITC (MicroCal™) Isothermal Titration Calorimeter. Measurements were performed at 25°C in degassed 50 mM NaPO4 buffer (pH 7.0) containing 100 mM NaCl. In order to calculate the enthalpies of binding (ΔH) for BBP-A and AVD, the cell used for measurements was filled with 30 μM protein solution. […] The data were analysed with Origin 7.0 software using the "One Set of Sites" method. The titration curve (heat change μcal/injection) resulting from the 15 injections was analysed by fitting the data to a nonlinear least square curve.

The target in another data set is T2, wtAVD (Gallus gallus, UniProt P02701).
T2 construct: AVD isolated from chicken egg-white (wtAVD; Belovo S. A., Bastogne, Belgium); purchased Belovo S. A., Bastogne, Belgium; host or cells: chicken egg-white
In words: Intrinsic fluorescence emission spectra, AVD. Format: binding, chicken. The conditions noted are these: 100 nM protein, 200 nM ligand, 25°C, excitation 280 nm. As to the method: (§2) The ligand-induced changes to the emission spectra of bBBP-A and wtAVD were studied, too (Figure 11). […] Compared to the ligand-free proteins, for each of the ligand-protein combinations the maximum in the emission spectra moved towards the shorter blue wavelengths.
(§3) In order to study the intrinsic fluorescence of the proteins, the emission spectra of bBBP-A and wtAVD in 50 mM NaPO4 buffer (pH 7.0) containing 650 mM NaCl were measured using a PerkinElmer LS55 spectrofluorometer and excitation at 280 nm (slit 2.5 nm). During the analysis, protein solutions (100 nM) were continuously mixed using an integrated magnetic stirrer and maintained at 25°C using a circulating water bath.

The target of data set [2] is T1, bBBP-A. In words: Intrinsic fluorescence emission spectra, BBP-A. The data set is classed as binding, chicken. To be noted: 100 nM protein, 200 nM ligand, 25°C, excitation 280 nm. On the procedure: as §2, §3
The target of data set [3] is T1, bBBP-A. In words: DSC of BBP-A in the presence of ligand. The data set is classed as binding, chicken. On the procedure:
(§4) Differential scanning analysis was performed in 50 mM NaPO4 buffer (pH 7.0) containing 100 mM NaCl as previously described. The concentration of the analyzed proteins was between 0.2 and 0.6 mg/ml. In samples containing a ligand, the molar ligand concentration was three times as high as the protein subunit concentration. The samples were scanned from 25 to 130°C at a rate of 0.92°C/min.

Data set [4] concerns the target T3, chicken AVD (Gallus gallus, UniProt P02701).
T3 construct: AVD isolated from chicken egg-white (wtAVD; Belovo S. A., Bastogne, Belgium); purchased Belovo S. A., Bastogne, Belgium; host or cells: chicken egg-white
The data set is described as follows: Isothermal titration calorimetry, AVD. The data set is classed as binding. To be noted: 25°C. On the procedure: as §1

The next data set deals with AVD. The data set is described as follows: Dissociation of BSO (fluorometric) versus BTN (radiobiotin) from AVD. Format: binding, chicken. To be noted: 50°C; BSO fluorometric analysis, BTN radiobiotin assay.
The target in a further data set is T4, BBP-A (Gallus gallus, UniProt E1BTQ4).
T4 sequence (E1BTQ4 22-146): T1 sequence (E1BTQ4 22-146)
The data set is described as follows: Biotin-binding affinity of BBP-A. Also noted: species or system chicken. On the procedure: Background The chicken genome contains a BBP-A gene showing similar characteristics to avidin family genes. In a previous study we reported that the BBP-A gene may encode a biotin-binding protein due to the high sequence similarity with chicken avidin, especially at regions encoding residues known to be located at the ligand-binding site of avidin.
(§5) The dissociation rate of [^3H]biotin from BBP-A was measured using a competitive dissociation assay (Figure 9; Table 2).

Data set [5] addresses T3, chicken AVD. In words: DSC of AVD in the presence of ligand. Format: binding. As to the method:
as §4

In data set [6] the target is T1, bBBP-A. The data set is described as follows: Fluorescence spectroscopy protein-ligand dissociation analysis. The data set is classed as binding, chicken. On the procedure:
Fluorescence spectroscopy was also used to measure the rate of protein-ligand dissociation. These experiments were made at 40°C in order to measure the dissociation events within an experimentally applicable timescale. […] The measured spectral properties of each protein-ligand complex (i.e. the emission intensity of the protein-ligand complex) were used to create a single-phase dissociation model, which was fitted to the data.

The target in data set [7] is T1, bBBP-A. In words: [3H]-biotin competitive dissociation analysis (ligand from BBP-A). The conditions noted are these: 40°C, [3H]-biotin dissociation analysis, excess of BTN as competitive ligand. The data set is classed as binding, chicken. As to the method: as §5
The dissociation rate of [^3H]biotin (Amersham) was measured at various temperatures with a competition assay as described previously. Measurements were carried out in 50 mM NaPO4 buffer containing 100 mM NaCl.

Data set [8] is described as follows: Differential scanning calorimetry of the proteins. The data set is classed as physicochemical, chicken. To be noted: with BTN. As to the method:
as §4
On the technique in general: Differential scanning calorimetry records heat flow against a reference as temperature is scanned.

Data set [9] can be described thus: Dissociation of fluorescent biotin conjugate ArcDia BF560-biotin from the proteins. The data set is classed as binding. To be noted: 25°C. As to the method: as §5
The dissociation rate of the fluorescent biotin conjugate ArcDia™ BF560-biotin (ArcDia Ltd., Turku, Finland) was measured as reported previously. The measurements were made at 25°C in 50 mM NaPO4 buffer (pH 7.0) containing 650 mM NaCl using a PerkinElmer LS55 luminometer.

Details of data set [10]: method as in PMID 15324300. To be noted: ref [30], cited from earlier work; for Tr +BTN: with BTN; for Tr -BTN: without BTN.
The conditions of data set [11]: without BTN; ref [33]; cited from earlier work.
Data set [12] concerns the target chicken biotin-binding protein A expressed in bacteria (bBBP-A) (chicken). In words: SDS-PAGE-based thermostability assay; samples saturated with BTN; acetylated in vitro, thermal treatment 20 min in sample buffer with SDS and 2-mercaptoethanol, Coomassie staining.
Data set [13] has the same target. The data set is described as follows: SEC; gel filtration, Superdex 200 10/300 GL, 50 mM NaPO4, 650 mM NaCl, pH 7.0; samples without BTN and after 15 min with 0.22 mM BTN; apparent masses from standard proteins. A general note: Size exclusion chromatography separates by hydrodynamic size, large species first.
The target is the same in data set [14]. In words: crystal structure; bBBP-A co-crystallised with BTN; two crystals, BBP-A - BTN (2.1 A, I4(1)22) and BBP-A - BSO (1.75 A, P2(1)2(1)2).
Data set [15] addresses chicken biotin-binding protein A expressed in insect cells (iBBP-A) (chicken). The data set is described as follows: SDS-PAGE-based thermostability assay; samples saturated with BTN; acetylated in vitro, thermal treatment 20 min in sample buffer with SDS and 2-mercaptoethanol, Coomassie staining.
For data set [16] the target is unchanged. The data set is described as follows: SEC; gel filtration, Superdex 200 10/300 GL, 50 mM NaPO4, 650 mM NaCl, pH 7.0; samples without BTN and after 15 min with 0.22 mM BTN; apparent masses from standard proteins.
Where [17] appears, read: 40°C, fluorescence spectroscopic analysis, excess of BTN as competitive ligand.

T3 sequence (P02701 25-152): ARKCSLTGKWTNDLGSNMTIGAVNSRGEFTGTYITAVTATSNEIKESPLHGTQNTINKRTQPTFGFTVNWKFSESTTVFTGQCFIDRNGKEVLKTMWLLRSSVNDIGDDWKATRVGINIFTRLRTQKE
T2 sequence (P02701 25-152): as above

For `O=C(O)CCCC[C@H]1[C@H]2NC(=O)N[C@H]2C[S+]1[O-]` (stereo partly drawn) [BSO, D-biotin D-sulfoxide], on bBBP-A [1], the “Enthalpy (ITC), BBP-A” value is -25.9 ± 0.1 kcal/mol. For the same molecule, the “ligand-induced change of emission intensity of AVD” value (“ligand-induced change … of AVD” below) on wtAVD is recorded as “decreased the emission intensity”. The “ligand-induced change of emission intensity of BBP-A” value (from here on “ligand-induced change … of BBP-A”) at bBBP-A [2] is “enhanced the emission intensity”. In addition, at bBBP-A [3], the “Tm (DSC), BBP-A” value was 100.4 ± 0.2 °C. For the same molecule, at chicken AVD [4], the “Enthalpy (ITC), AVD” value is -29.3 ± 0.1 kcal/mol. In addition, the “dissociation rate from AVD, times higher in comparison to BTN” value with AVD is recorded as “more than 20 times”. Also, the “affinity of BBP-A for BSO compared with BTN” value at BBP-A is given as “even higher than the affinity for BTN”. Also, at chicken AVD [5], the “Tm (DSC), AVD” value was 116.9 ± 0.2 °C. Moreover, the “kdiss from BBP-A” value on bBBP-A [6] (setting [17]) is 1.3^a × 10^-4 s^-1.

In general, Kd refers to a measure of binding affinity in units of concentration. For `O=C(O)CCCC[C@@H]1SC[C@@H]2NC(=O)N[C@@H]21` [BTN, D-biotin], at bBBP-A [1], the Kd is less than 1 nM and the “Enthalpy (ITC), BBP-A” value is -20.5 ± 0.1 kcal/mol. The “kdiss from BBP-A” value on bBBP-A [7] is given as 5.4^b (4.4^c) × 10^-4 s^-1. Moreover, the “ligand-induced change … of AVD” value on wtAVD is “decreased the emission intensity”. In addition, the “ligand-induced change … of BBP-A” value at bBBP-A [2] was “enhanced the emission intensity”. On bBBP-A [3], the “Tm (DSC), BBP-A” value came out at 103.4 ± 0.1 °C. For the same molecule, at chicken AVD [4], the “Enthalpy (ITC), AVD” value is recorded as -22.6 ± 0.1 kcal/mol. Also, the “affinity of BBP-A for biotin, times lower than that of chicken avidin” value on BBP-A is reported as “about 50 times”. Also, the “Tm (DSC), AVD” value on chicken AVD [5] worked out at 117.0 ± 0.7 °C. For the same molecule, on bBBP-A [6], the “kdiss from BBP-A” value is reported as 5.4^b (4.4^c) × 10^-4 s^-1.

As for `O=C(O)CCCC[C@H]1[C@H]2NC(=O)N[C@H]2CS1(=O)=O` [D-biotin sulfone], the “Enthalpy (ITC), BBP-A” value on bBBP-A [1] was -21.4 ± 0.1 kcal/mol. For the same molecule, the “ligand-induced change … of AVD” value at wtAVD is listed as “increased the emission intensity”. Moreover, on bBBP-A [2], the “ligand-induced change … of BBP-A” value was “enhanced the emission intensity”. The “Tm (DSC), BBP-A” value at bBBP-A [3] is 101.4 ± 0.2 °C. At chicken AVD [4], the “Enthalpy (ITC), AVD” value is listed as -25.1 ± 0.1 kcal/mol. The “Tm (DSC), AVD” value on chicken AVD [5] was determined as 117.0 ± 0.0 °C. For the same molecule, the “kdiss from BBP-A” value at bBBP-A [6] (setting [17]) is reported as 3.3^a × 10^-4 s^-1.

On to “AVD: AVD isolated from chicken egg-white (Belovo S. A.), control protein”, for which the “Tm +BTN (DSC)” value in data set [8] worked out at 117.0 °C. Further, in data set [9], the “kdiss, dissociation of fluorescent BTN” value is 2.0 10^-5 s^-1 and the “Release 1 h, dissociation of fluorescent BTN” value was 10%. In [10], the “Tr +BTN” value is 90^b °C and the “Tr -BTN” value is 60^b °C. The “Tm -BTN (DSC)” value in data set [11] is 83.5^c °C.

Regarding “bAVD: AVD produced in E. coli, control protein”, in data set [9], the “kdiss, dissociation of fluorescent BTN” value is 1.1 10^-5 s^-1 and the “Release 1 h, dissociation of fluorescent BTN” value is given as 5%. Further, in data set [10], the “Tr +BTN” value is 90^b °C and the “Tr -BTN” value is 60^b °C.

The term stoichiometry N denotes a count of units in the complex or per binding partner. With “chicken biotin-binding protein A expressed in bacteria (bBBP-A) (natural protein)”, the stoichiometry N in data set [12], in data set [13] and in [14] was 4 throughout.

For the molecule “chicken biotin-binding protein A expressed in insect cells (iBBP-A) (natural protein)”, the stoichiometry N in [15] and in [16] was 4 in each case.
